From US20260297109A1, “COMPOUNDS AS SUMO ACTIVATING ENZYME INHIBITORS” (WIGEN BIOMEDICINE TECHNOLOGY (SHANGHAI) CO., LTD., priority 2022, published 2026)

Target: T1, SAE (Homo sapiens, UniProt Q9UBT2)
T1 construct: endogenous in cells; host or cells: HCT116
T1 sequence (Q9UBT2 1-640): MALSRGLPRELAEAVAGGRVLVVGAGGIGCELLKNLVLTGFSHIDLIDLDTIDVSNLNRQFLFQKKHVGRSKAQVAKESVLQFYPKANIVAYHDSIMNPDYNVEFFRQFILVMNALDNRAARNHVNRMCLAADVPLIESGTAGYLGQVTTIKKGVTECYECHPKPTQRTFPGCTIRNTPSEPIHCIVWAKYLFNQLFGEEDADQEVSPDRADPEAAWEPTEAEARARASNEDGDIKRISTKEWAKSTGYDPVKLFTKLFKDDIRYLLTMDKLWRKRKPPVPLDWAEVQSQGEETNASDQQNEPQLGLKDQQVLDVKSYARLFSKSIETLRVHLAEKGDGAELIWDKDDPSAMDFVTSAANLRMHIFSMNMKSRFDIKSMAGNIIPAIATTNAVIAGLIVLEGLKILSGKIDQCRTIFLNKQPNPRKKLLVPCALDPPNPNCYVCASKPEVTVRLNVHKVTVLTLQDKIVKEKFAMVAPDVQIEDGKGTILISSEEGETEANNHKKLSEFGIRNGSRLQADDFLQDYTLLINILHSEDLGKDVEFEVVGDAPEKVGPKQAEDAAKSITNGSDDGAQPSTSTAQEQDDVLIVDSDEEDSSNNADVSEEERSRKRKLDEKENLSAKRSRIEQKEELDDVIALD
T1 sequence (Q9UBE0 1-346): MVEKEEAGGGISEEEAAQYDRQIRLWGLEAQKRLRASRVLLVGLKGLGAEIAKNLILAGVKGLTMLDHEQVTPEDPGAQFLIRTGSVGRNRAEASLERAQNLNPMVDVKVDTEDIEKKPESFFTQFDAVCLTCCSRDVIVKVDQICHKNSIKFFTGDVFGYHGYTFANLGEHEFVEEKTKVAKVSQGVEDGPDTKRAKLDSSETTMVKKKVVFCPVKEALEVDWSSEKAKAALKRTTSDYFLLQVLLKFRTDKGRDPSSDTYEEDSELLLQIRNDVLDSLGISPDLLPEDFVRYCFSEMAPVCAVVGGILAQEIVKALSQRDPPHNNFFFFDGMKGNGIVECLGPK
Assay: SUMO IF: in vitro inhibitory activity assay against SAE in HCT116 cells (SUMO-2/3 immunofluorescence)
Assay type: cell-based
Details: class symbols, 6 h at 37° C.
Method in brief: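 HCT116 cells were treated with compound for 6 h at 37 °C, then PFA-fixed, Triton-permeabilised and BSA-blocked. They were stained overnight at 4 °C with anti-SUMO-2/3 (18H8) rabbit mAb (1:400), then with FITC anti-rabbit IgG (1:300). Fluorescence versus DMSO gave inhibition rate and IC50.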

Row | SMILES | IC50
1 | CN1Cc2sc(C(=O)c3cncnc3N[C@H]3C[C@H](O)[C@@H](COS(N)(=O)=O)[C@@H]3F)cc2[C@@]2(C1)OCCc1ccc(Cl)cc12 [Compound 724] | > 200 nM
2 | CN1Cc2sc(C(=O)c3cncnc3N[C@H]3C[C@H](O)[C@@H](COS(N)(=O)=O)[C@@H]3F)cc2[C@]2(C1)OCCc1ccc(Cl)cc12 [Compound 725] | ≤ 50 nM
3 | CCN1Cc2sc(C(=O)c3cncnc3N[C@H]3C[C@H](O)[C@@H](COS(N)(=O)=O)[C@@H]3F)cc2C2(C1)OCCc1ccc(F)cc12 (stereo partly drawn) [Compound 726] | 50 to 200 nM
4 | CCN1Cc2sc(C(=O)c3cncnc3N[C@H]3C[C@H](O)[C@@H](COS(N)(=O)=O)[C@@H]3F)cc2[C@@]2(C1)OCCc1ccc(F)cc12 [Compound 727] | > 200 nM
5 | CCN1Cc2sc(C(=O)c3cncnc3N[C@H]3C[C@H](O)[C@@H](COS(N)(=O)=O)[C@@H]3F)cc2[C@]2(C1)OCCc1ccc(F)cc12 [Compound 728] | ≤ 50 nM
6 | CCN1Cc2sc(C(=O)c3cncnc3N[C@H]3C[C@H](O)[C@@H](COS(N)(=O)=O)[C@@H]3F)cc2C2(C1)OCCc1ccc(Cl)cc12 (stereo partly drawn) [Compound 729] | ≤ 50 nM
7 | CCN1Cc2sc(C(=O)c3cncnc3N[C@H]3C[C@H](O)[C@@H](COS(N)(=O)=O)[C@@H]3F)cc2[C@@]2(C1)OCCc1ccc(Cl)cc12 [Compound 730] | > 200 nM
8 | CCN1Cc2sc(C(=O)c3cncnc3N[C@H]3C[C@H](O)[C@@H](COS(N)(=O)=O)[C@@H]3F)cc2[C@]2(C1)OCCc1ccc(Cl)cc12 [Compound 731] | ≤ 50 nM
9 | CC(C)N1Cc2sc(C(=O)c3cncnc3N[C@H]3C[C@H](O)[C@@H](COS(N)(=O)=O)[C@@H]3F)cc2C2(C1)OCCc1ccc(F)cc12 (stereo partly drawn) [Compound 732] | 50 to 200 nM
10 | CC(C)N1Cc2sc(C(=O)c3cncnc3N[C@H]3C[C@H](O)[C@@H](COS(N)(=O)=O)[C@@H]3F)cc2[C@@]2(C1)OCCc1ccc(F)cc12 [Compound 733] | > 200 nM
11 | CC(C)N1Cc2sc(C(=O)c3cncnc3N[C@H]3C[C@H](O)[C@@H](COS(N)(=O)=O)[C@@H]3F)cc2[C@]2(C1)OCCc1ccc(F)cc12 [Compound 734] | ≤ 50 nM
12 | CC(C)N1Cc2sc(C(=O)c3cncnc3N[C@H]3C[C@H](O)[C@@H](COS(N)(=O)=O)[C@@H]3F)cc2C2(C1)OCCc1ccc(Cl)cc12 (stereo partly drawn) [Compound 735] | 50 to 200 nM
13 | CC(C)N1Cc2sc(C(=O)c3cncnc3N[C@H]3C[C@H](O)[C@@H](COS(N)(=O)=O)[C@@H]3F)cc2[C@@]2(C1)OCCc1ccc(Cl)cc12 [Compound 736] | > 200 nM
14 | CC(C)N1Cc2sc(C(=O)c3cncnc3N[C@H]3C[C@H](O)[C@@H](COS(N)(=O)=O)[C@@H]3F)cc2[C@]2(C1)OCCc1ccc(Cl)cc12 [Compound 737] | ≤ 50 nM
15 | NS(=O)(=O)OC[C@H]1[C@H](F)[C@@H](Nc2ncncc2C(=O)c2cc3c(s2)CN(C2CC2)CC32OCCc3ccc(F)cc32)C[C@@H]1O (stereo partly drawn) [Compound 738] | 50 to 200 nM
16 | NS(=O)(=O)OC[C@H]1[C@H](F)[C@@H](Nc2ncncc2C(=O)c2cc3c(s2)CN(C2CC2)C[C@@]32OCCc3ccc(F)cc32)C[C@@H]1O [Compound 739] | > 200 nM
17 | NS(=O)(=O)OC[C@H]1[C@H](F)[C@@H](Nc2ncncc2C(=O)c2cc3c(s2)CN(C2CC2)C[C@]32OCCc3ccc(F)cc32)C[C@@H]1O [Compound 740] | ≤ 50 nM
18 | NS(=O)(=O)OC[C@H]1[C@H](F)[C@@H](Nc2ncncc2C(=O)c2cc3c(s2)CN(C2CC2)CC32OCCc3ccc(Cl)cc32)C[C@@H]1O (stereo partly drawn) [Compound 741] | 50 to 200 nM
19 | NS(=O)(=O)OC[C@H]1[C@H](F)[C@@H](Nc2ncncc2C(=O)c2cc3c(s2)CN(C2CC2)C[C@@]32OCCc3ccc(Cl)cc32)C[C@@H]1O [Compound 742] | > 200 nM
20 | NS(=O)(=O)OC[C@H]1[C@H](F)[C@@H](Nc2ncncc2C(=O)c2cc3c(s2)CN(C2CC2)C[C@]32OCCc3ccc(Cl)cc32)C[C@@H]1O [Compound 743] | ≤ 50 nM
21 | NS(=O)(=O)OC[C@H]1[C@H](F)[C@@H](Nc2ncncc2C(=O)c2cc3c(s2)CCC32OCCc3ccccc32)C[C@@H]1O (stereo partly drawn) [Compound 744] | > 200 nM
22 | NS(=O)(=O)OC[C@H]1[C@H](F)[C@@H](Nc2ncncc2C(=O)c2cc3c(s2)CC[C@@]32OCCc3ccccc32)C[C@@H]1O [Compound 745] | > 200 nM
23 | NS(=O)(=O)OC[C@H]1[C@H](F)[C@@H](Nc2ncncc2C(=O)c2cc3c(s2)CC[C@]32OCCc3ccccc32)C[C@@H]1O [Compound 746] | 50 to 200 nM

Row | SMILES | IC50
24 | NS(=O)(=O)OC[C@H]1[C@H](F)[C@@H](Nc2ncncc2C(=O)c2cc3c(s2)CCC32OCCc3ccc(F)cc32)C[C@@H]1O (stereo partly drawn) [Compound 747] | 50 to 200 nM
25 | NS(=O)(=O)OC[C@H]1[C@H](F)[C@@H](Nc2ncncc2C(=O)c2cc3c(s2)CC[C@@]32OCCc3ccc(F)cc32)C[C@@H]1O [Compound 748] | > 200 nM
26 | NS(=O)(=O)OC[C@H]1[C@H](F)[C@@H](Nc2ncncc2C(=O)c2cc3c(s2)CC[C@]32OCCc3ccc(F)cc32)C[C@@H]1O [Compound 749] | 50 to 200 nM
27 | N#Cc1ccc2c(c1)C1(CCc3sc(C(=O)c4cncnc4N[C@H]4C[C@H](O)[C@@H](COS(N)(=O)=O)[C@@H]4F)cc31)OCC2 (stereo partly drawn) [Compound 750] | 50 to 200 nM
28 | N#Cc1ccc2c(c1)[C@]1(CCc3sc(C(=O)c4cncnc4N[C@H]4C[C@H](O)[C@@H](COS(N)(=O)=O)[C@@H]4F)cc31)OCC2 [Compound 751] | > 200 nM
29 | N#Cc1ccc2c(c1)[C@@]1(CCc3sc(C(=O)c4cncnc4N[C@H]4C[C@H](O)[C@@H](COS(N)(=O)=O)[C@@H]4F)cc31)OCC2 [Compound 752] | ≤ 50 nM
30 | NS(=O)(=O)OC[C@H]1[C@H](F)[C@@H](Nc2ncncc2C(=O)c2cc3c(s2)C=CC32OCCc3ccccc32)C[C@@H]1O (stereo partly drawn) [Compound 753] | 50 to 200 nM
31 | NS(=O)(=O)OC[C@H]1[C@H](F)[C@@H](Nc2ncncc2C(=O)c2cc3c(s2)C=C[C@@]32OCCc3ccccc32)C[C@@H]1O [Compound 754] | > 200 nM
32 | NS(=O)(=O)OC[C@H]1[C@H](F)[C@@H](Nc2ncncc2C(=O)c2cc3c(s2)C=C[C@]32OCCc3ccccc32)C[C@@H]1O [Compound 755] | 50 to 200 nM
33 | NS(=O)(=O)OC[C@H]1[C@H](F)[C@@H](Nc2ncncc2C(=O)c2cc3c(s2)C=CC32OCCc3ccc(F)cc32)C[C@@H]1O (stereo partly drawn) [Compound 756] | 50 to 200 nM
34 | NS(=O)(=O)OC[C@H]1[C@H](F)[C@@H](Nc2ncncc2C(=O)c2cc3c(s2)C=C[C@@]32OCCc3ccc(F)cc32)C[C@@H]1O [Compound 757] | > 200 nM
35 | NS(=O)(=O)OC[C@H]1[C@H](F)[C@@H](Nc2ncncc2C(=O)c2cc3c(s2)C=C[C@]32OCCc3ccc(F)cc32)C[C@@H]1O [Compound 758] | ≤ 50 nM
36 | NS(=O)(=O)OC[C@H]1[C@H](F)[C@@H](Nc2ncncc2C(=O)c2cc3c(s2)C=CC32OCCc3ccc(Cl)cc32)C[C@@H]1O (stereo partly drawn) [Compound 759] | ≤ 50 nM
37 | NS(=O)(=O)OC[C@H]1[C@H](F)[C@@H](Nc2ncncc2C(=O)c2cc3c(s2)C=C[C@@]32OCCc3ccc(Cl)cc32)C[C@@H]1O [Compound 760] | > 200 nM
38 | NS(=O)(=O)OC[C@H]1[C@H](F)[C@@H](Nc2ncncc2C(=O)c2cc3c(s2)C=C[C@]32OCCc3ccc(Cl)cc32)C[C@@H]1O [Compound 761] | ≤ 50 nM
39 | N#Cc1ccc2c(c1)C1(C=Cc3sc(C(=O)c4cncnc4N[C@H]4C[C@H](O)[C@@H](COS(N)(=O)=O)[C@@H]4F)cc31)OCC2 (stereo partly drawn) [Compound 762] | 50 to 200 nM
40 | N#Cc1ccc2c(c1)[C@]1(C=Cc3sc(C(=O)c4cncnc4N[C@H]4C[C@H](O)[C@@H](COS(N)(=O)=O)[C@@H]4F)cc31)OCC2 [Compound 763] | > 200 nM
41 | N#Cc1ccc2c(c1)[C@@]1(C=Cc3sc(C(=O)c4cncnc4N[C@H]4C[C@H](O)[C@@H](COS(N)(=O)=O)[C@@H]4F)cc31)OCC2 [Compound 764] | ≤ 50 nM
42 | NS(=O)(=O)OC[C@H]1[C@H](F)[C@@H](Nc2ncncc2C(=O)c2cc(C3NCCc4ccc(Cl)cc43)c(C3CC3)s2)C[C@@H]1O (stereo partly drawn) [Compound 984] | 50 to 200 nM
43 | NS(=O)(=O)OC[C@H]1[C@H](F)[C@@H](Nc2ncncc2C(=O)c2cc([C@@H]3NCCc4ccc(Cl)cc43)c(C3CC3)s2)C[C@@H]1O [Compound 985] | 50 to 200 nM
44 | NS(=O)(=O)OC[C@H]1[C@H](F)[C@@H](Nc2ncncc2C(=O)c2cc([C@H]3NCCc4ccc(Cl)cc43)c(C3CC3)s2)C[C@@H]1O [Compound 986] | > 200 nM
45 | Cc1sc(C(=O)c2cncnc2N[C@H]2C[C@H](O)[C@@H](COS(N)(=O)=O)[C@@H]2F)cc1C1OCCc2ccc(Cl)cc21 (stereo partly drawn) [Compound 987] | 50 to 200 nM
